Reference: PubChem BioAssay AID743417 (Broad Institute, 2014)
Records with an inconclusive call do not appear. Activity calls are given as the source filed them.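 How the source made its calls: active means compounds lowering the luciferase signal with a fitted half-maximal dose at most twice their top valid dose (cut at about 30 µM in these data); inconclusive means flat fits with moderate signal loss, or poor fits; inactive means the rest.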

Test system: Clone20 osteoblast Shn3 3'UTR firefly luciferase, 24 h
Assay: Schnurri-3 3'UTR-luciferase signal suppressors – cell-based, Clone20 osteoblasts, luminescence, dry powder, set 2, dose response (AID 743417)

Point of comparison: `Cc1nc2ccccc2cc1OCc1ccc(F)cc1`, AC50 1.7 µM. Against it:
- C=C[C@]1(C)C=C2C(=O)[C@@]3(O)OC(=O)[C@@]4(CCCC(C)(C)[C@H]34)[C@@]2(O)CC1 — 2.9-fold higher, 4.98 µM
- CC(NCc1ccc(OCc2ccc(Cl)cc2)cc1)C(O)c1ccccc1 (stereo unspecified) — 6.4-fold higher, 10.9 µM
- COCCn1c(SCC(=O)/C=C2\N(C)c3ccccc3C2(C)C)nnc1-c1ccncc1 — 1.6-fold higher, 2.65 µM
- COc1c(CC=C(C)C)cc(C2CC(=O)c3c(O)cc(O)cc3O2)cc1CC=C(C)C (stereo unspecified) — 3.2-fold higher, 5.42 µM
- COc1ccc(-n2nnnc2S(=O)(=O)CC(=O)N2CCCCC2)cc1 — 3.2-fold higher, 5.44 µM
- COC(=O)C1=C(c2ccc(-c3ccccc3)c(F)c2)C[C@@H]2CC[C@H]1N2C(=O)N1CCCC1 — 3.6-fold higher, 6.06 µM
- CCOc1cc2c(cc1OCC)-n1cccc1C(c1ccc(C(C)C)cc1)NC2 (stereo unspecified) — 4.2-fold higher, 7.22 µM
- O=C(NCc1ccccc1C(F)(F)F)c1cccc2c1C(=O)c1ccc(N3CCC(N4CCCCC4)CC3)cc1S2(=O)=O — 12-fold higher, 21.2 µM
- CCCc1nnc(NC(=O)c2nc(S(=O)(=O)Cc3cccc(C)c3)ncc2Cl)s1 — 1.5-fold higher, 2.55 µM
- COc1cc(NC(=O)c2cccc3c(-c4cccnc4)coc23)cc(OC)c1OC — 1.7-fold lower, 0.978 µM
- COc1cc(NS(=O)(=O)c2ccc(C)cc2)c2ncccc2c1 — 2-fold higher, 3.35 µM
- CCCOC(=O)c1ccc(OCC(O)Cn2c(C)nc3ccccc32)cc1 (stereo unspecified) — 2.7-fold lower, 0.62 µM
- CC(C)(C)C(=O)Nc1cc2nn(-c3ccccc3)nc2cc1Cl — 3-fold higher, 5.16 µM
- O=C(Nc1nc(-c2ccccn2)cs1)c1ccccc1-n1cnnn1 — within 1.5-fold, 1.71 µM
- O=S1(=O)C=C(Sc2nnc(-c3ccccc3)o2)c2ccccc21 — the same, 1.7 µM
- CCCCCCN1C[C@H](n2cc(-c3ccc(F)cc3)nn2)[C@@H](O)C[C@@H]1c1ccc(Cl)cc1 — 6.1-fold higher, 10.3 µM
- C#CCn1c(=NC(=O)c2ccc(S(=O)(=O)N3CCc4ccccc4C3)cc2)sc2cc(S(N)(=O)=O)ccc21 — within 1.5-fold, 1.29 µM
- O=C(/C=C/c1ccccc1)NC(NC(=S)Nc1ccc(Cl)cc1)C(Cl)(Cl)Cl (stereo unspecified) — 3-fold higher, 5.13 µM
- Cc1cc(Nc2ccccc2)nc(NCc2ccccc2)n1 — 1.6-fold lower, 1.04 µM
- O=C1S/C(=C\c2ccc(N3CCOCC3)o2)C(=O)N1Cc1c(F)cccc1Cl — 4-fold higher, 6.72 µM
- CC(=O)c1c(C)[nH]c(C(=O)COc2cc(C)ccc2C(C)C)c1C — within 1.5-fold, 1.25 µM
- O=S(=O)(c1ccc2c(c1)OCCO2)N1CCN(c2ncnc3sccc23)CC1 — within 1.5-fold, 1.45 µM
- CCN(CC)CCN1C(=O)/C(=C\c2ccc(Cl)c([N+](=O)[O-])c2)SC1=Nc1ccc(OC)cc1 — within 1.5-fold, 2.11 µM
- Cc1cc(NNC(=O)c2cccc(C(F)(F)F)c2)nc2c1c(C)nn2C — within 1.5-fold, 2.43 µM
- O=C(Nc1cccc(C(F)(F)F)c1)Nc1ccc(N2CCCC2)c(S(=O)(=O)Nc2ccccc2Cl)c1 — 2.6-fold higher, 4.42 µM
- CC[C@]12c3[nH]c4cc(CCC(=O)N(C)C)ccc4c3CCN1C(=O)[C@@H](CC(=O)NC/C=C(\C)CCC=C(C)C)C[C@@H]2C(=O)N1CCN(C(=O)c2ccco2)CC1 — within 1.5-fold, 1.68 µM
- CCCC(=O)N1CCN(c2ccc(NC(=O)c3ccc([N+](=O)[O-])o3)cc2Cl)CC1 — 2.4-fold lower, 0.7 µM
- CN(C)C1=NC[C@H](Cc2ccccc2)N1CCCC1CCCC1 — 1.5-fold higher, 2.63 µM
- COc1ccc(Nc2cc(C)nc(NCc3ccccc3)n2)cc1 — 2.3-fold higher, 3.9 µM
- O=C(N[C@@H]1C/C=C\C[C@@H](CC(=O)N(CCO)Cc2ccccc2)C(=O)NC[C@H](c2ccccc2)OC1=O)OCC1c2ccccc2-c2ccccc21 — 4.1-fold higher, 7.04 µM
- CCOc1ccc(CCN2C(=S)N([C@@H](CC(C)C)CN3CCCC3CN3C(=S)NC[C@@H]3Cc3ccc(O)cc3)C[C@@H]2Cc2ccc(O)cc2)cc1 (stereo partly specified) — 6.8-fold higher, 11.5 µM
- C=C(C)[C@@H]1C2=CC(C(=O)OC)=C(C[C@H](C(=C)C)[C@H]3O[C@H]3C3=C[C@H]1OC3=O)O2 — 4.8-fold higher, 8.16 µM
- Oc1c(Cl)cc(CN2CCOCC2)c2cccnc12 — within 1.5-fold, 2.43 µM
- C=C1C(=O)[C@@]23[C@H](O)C[C@@H]4C(C)(C)CC[C@H](O)[C@@]4(C)[C@@H]2CC[C@@H]1[C@H]3O — within 1.5-fold, 1.29 µM
- O=C(Nc1nc(-c2ccccn2)cs1)C1COc2ccccc2O1 (stereo unspecified) — 3.4-fold higher, 5.81 µM
- Cc1ccc2c(c1)c(C1=c3ccccc3=NC1=O)c(O)n2C — 5.2-fold higher, 8.85 µM
- COc1ccc(Cl)cc1N/C(N)=N/c1nc(CSc2ccc(C)cc2)cc(=O)[nH]1 — within 1.5-fold, 1.82 µM
- C=CCC[C@H](Cc1ccc(F)cc1)C(=O)OC[C@H](Cc1c[nH]c2ccccc12)NC(=O)[C@H](CC=C)CC(=O)N(CCO)Cc1ccccc1 — 6.9-fold higher, 11.7 µM
- CCOc1ccccc1NC(=O)c1nc(S(=O)(=O)Cc2ccccc2)ncc1Cl — 4.5-fold lower, 0.376 µM
- O=C(c1ccc(F)cc1)C(CN1CCOCC1)c1ccccc1 (stereo unspecified) — 10-fold higher, 17.6 µM
- COc1ccccc1/C=C1\CCCC2=C1Nc1nnnn1C2c1ccccc1OC (stereo unspecified) — 21-fold higher, 36 µM
- CN1/C(=C\C(=O)CN2C(=O)NC3(CCCCCC3)C2=O)C(C)(C)c2ccccc21 — 1.6-fold higher, 2.66 µM
- C[C@@H]1CCCCO[C@H](CN(C)Cc2ccccc2)[C@@H](C)CN([C@H](C)CO)C(=O)c2cc(NC(=O)c3ccccc3)ccc2O1 — 18-fold higher, 31.3 µM
- O=C(O)C1(Nc2ccccc2Cl)CCCC1 — 17-fold higher, 29.5 µM
- CN(C)CC(C(=O)Cc1ccccc1)c1ccccc1 (stereo unspecified) — 4.6-fold higher, 7.81 µM
- CC(C)c1nnc(NC(=O)c2nc(S(=O)(=O)Cc3ccccc3)ncc2Cl)s1 — 1.9-fold lower, 0.876 µM
- Oc1cc(Nc2ccccc2)cc2cccnc12 — within 1.5-fold, 1.79 µM
- CN1CCN(Cc2nc3ccccc3c(=O)n2Cc2nc(-c3ccc4ccccc4c3)cs2)CC1 — 6.5-fold higher, 11 µM
- CCc1c(C)nc2cc(-c3ccc(OC)c(OC)c3)nn2c1NCC1CC1 — 3-fold higher, 5.11 µM

`O=C(Cc1ccc(Cl)cc1)Nc1ccc(N2CCN(C(=O)c3ccco3)CC2)cc1` was tested, and the AC50 was > 70 µM (inactive).
